# Laboratory results reported in US11884652B2, “Tetrazole derivatives as TRPA1 inhibitors” (Boehringer Ingelheim International GmbH, priority 2020, dated 2024).
# pIC50: −log10 of the molar value.
# Legend:
# [1] = molecular target: T1, human TRPA1 ion channel (Homo sapiens, UniProt O75762); assay: Assay A: TRPA1 assay (FLIPR, AITC-induced calcium, HEK293 cells); type: cell-based; details: read-out: hTRPA1 IC50
# T1 construct: host or cells: HEK293
# Procedure: A human HEK293 cell line over-expressing the human TRPA1 ion channel (Perkin Elmer, Product No. AX-004-PCL) is used as a test system for compound efficacy and potency. Compound activity is determined by measuring the effect of compounds on intracellular calcium concentration induced by AITC (Allylisothiocyanat) agonism in a FLIPRtetra system (Molecular Devices).
# The cells are obtained as frozen cells in cryo-vials and stored until use at −150° C. Cells are grown in culture medium (MEM/EBSS medium with 10% FCS and 0.4 mg/ML Geneticin). […] For sub-culturing cells are detached from flasks by Versene. At the day before the assay, cells are detached, washed twice with medium (MEM/EBSS medium with 10% FCS) and 20000 cells in 20 μl/well are seeded to Poly D-Lysin biocoated 384-well plates (black, clear bottom, Cat. 356697) from Corning. Plates are incubated for 24 hours at 37° C./5% CO2 before use in the assay.
# The test compounds are dissolved in 100% DMSO at a concentration of 10 mM and in a first step diluted in DMSO to a concentration of 5 mM, followed by serial dilution steps in 100% DMSO. Dilution factor and number of dilution steps may vary according to needs. Typically 8 different concentrations by 1:5 dilutions are prepared, further intermediate dilutions (1:20) of the substances are carried out with HBSS/HEPES buffer (1×HEPES, Cat. 14065 from Gibco, 20 mM HEPES, Cat. 83264 from SIGMA, 0.1% BSA Cat. 11926 from Invitrogen, pH 7.4
# At the assay day cells are washed 3× with assay puffer, 20 μL buffer remaining in the wells after washing. 10 μL Ca6 kit (Cat. R8191 MolecularDevices) loading buffer in HBSS/HEPES is added to the cells and the plates are incubated with lid for 120 minutes at 37°/5% CO2. 10 μL of compound or controls in HBSS/HEPES buffer/5% DMSO from the intermediate dilution plate are carefully added to the wells. […] Finally 10 μL of the agonist AITC 50 μM dissolved in HBSS/HEPES buffer/0.05% DMSO (final concentration 10 μM) is added to the wells followed by an additional read on the FLIPRtetra device for 10 minutes. The area under the signal curve (AUC) after AITC addition is used for IC50/% inhibition calculations
# Data Evaluation and Calculation:
# Each assay microtiter plate contains wells with vehicle (1% DMSO) controls instead of compound as controls for AITC induced luminescence (100% CTL; high controls) and wells with vehicle controls without AITC as controls for non-specific changes in luminescence (0% CTL; low controls).
# The analysis of the data is performed by the calculation of the area under signal curve of the individual wells. Based on this values the % value for the measurement of each substance concentration is calculated (AUC(sample)−AUC(low))*100/(AUC(high)−AUC(low)) using MegaLab software (in house development). The IC50 values are calculated from the % control values using MegaLab software. Calculation: [y=(ad)/(1+(x/c)^b)+d], a=low value, d=high value; x=conc M; c=IC50 M; b=hill; y=% ctrl
# [2] = Assay B: Microsomal clearance; type: in vitro ADME, human; details: pooled liver microsomes 1 mg/ml, 1 μM compound, NADPH, 37° C.; clearance as % of hepatic blood flow
# Procedure: Assay B: Microsomal Clearance:
# The metabolic degradation of the test compound is assayed at 37° C. with pooled liver microsomes. The final incubation volume of 100 μl per time point contains TRIS buffer pH 7.6 at RT (0.1 M), magnesium chloride (5 mM), microsomal protein (1 mg/ml) and the test compound at a final concentration of 1 μM.
# Following a short preincubation period at 37° C., the reactions are initiated by addition of beta-nicotinamide adenine dinucleotide phosphate, reduced form (NADPH, 1 mM) and terminated by transferring an aliquot into solvent after different time points (0, 5, 15, 30, 60 min). Additionally, the NADPH-independent degradation is monitored in incubations without NADPH, terminated at the last time point. The [%] remaining test compound after NADPH independent incubation is reflected by the parameter c(control) (metabolic stability). The quenched incubations are pelleted by centrifugation (10000 g, 5 min).
# An aliquot of the supernatant is assayed by LC-MS/MS for the amount of parent compound. The half-life (t½ INVITRO) is determined by the slope of the semilogarithmic plot of the concentration-time profile.
# The intrinsic clearance (CL_[…]) is calculated by considering the amount of protein in the incubation: CL_[…] [μl/min/mg protein]=(Ln 2/(half-life [min]*protein content [mg/ml]))*1000 CL_[…]_INVIVO [ml/min/kg]=(CL_[…] [μL/min/mg protein]×MPPGL [mg protein/g liver]×liver factor [g/kg bodyweight])/1000 Qh[%]=CL[ml/min/kg]/hepatic blood flow [ml/min/kg])
# (§1) Hepatocellularity, human: 120×10e6 cells/g liver
# (§2) Liver factor, human: 25.7 g/kg bodyweight
# (§3) Blood flow, human: 21 ml/(min×kg)
# [3] = Assay C: Hepatocyte clearance; type: in vitro ADME, human; details: hepatocyte suspension, 1 μM compound, 6 h; predicted clearance as % of hepatic blood flow
# Procedure: Assay C: Hepatocyte Clearance
# The metabolic degradation of the test compound is assayed in a hepatocyte suspension. Hepatocytes (cryopreserved) are incubated in Dulbecco's modified eagle medium (supplemented with 3.5 μg glucagon/500 mL, 2.5 mg insulin/500 mL and 3.75 mg/500 mL hydrocortison) containing 5% or 50% species serum.
# The cells are incubated for six hours (incubator, orbital shaker) and samples ([…]) are taken at 0, 0.5, 1, 2, 4 and 6 hours. Samples are transferred into acetonitrile and pelleted by centrifugation (5 min). The supernatant is transferred to a new 96-deepwell plate, evaporated under nitrogen and resuspended.
# Decline of Parent Compound is Analyzed by HPLC-MS/MS
# CLint is calculated as follows CL_[…]=Dose/AUC=(C0/CD)/(AUD+clast/k)×1000/60. C0: initial concentration in the incubation [μM], CD: cell density of vital cells [10e6 cells/mL], AUD: area under the data [μM×h], clast: concentration of last data point [μM], k: slope of the regression line for parent decline [h−1].
# The calculated in vitro hepatic intrinsic clearance can be scaled up to the intrinsic in vivo hepatic Clearance and used to predict hepatic in vivo blood clearance (CL) by the use of a liver model (well stirred model). CL_[…]_INVIVO [ml/min/kg]=(CL_[…] [μL/min/10e6 cells]×hepatocellularity [10e6 cells/g liver]×liver factor [g/kg bodyweight])/1000 CL[ml/min/kg]=CL_[…]_INVIVO [ml/min/kg]×hepatic blood flow [ml/min/kg]/(CL_[…]_INVIVO [ml/min/kg]+hepatic blood flow [ml/min/kg]) Qh[%]=CL[ml/min/kg]/hepatic blood flow [ml/min/kg])
# as §1, §2, §3
# T1 sequence (O75762 whole entry): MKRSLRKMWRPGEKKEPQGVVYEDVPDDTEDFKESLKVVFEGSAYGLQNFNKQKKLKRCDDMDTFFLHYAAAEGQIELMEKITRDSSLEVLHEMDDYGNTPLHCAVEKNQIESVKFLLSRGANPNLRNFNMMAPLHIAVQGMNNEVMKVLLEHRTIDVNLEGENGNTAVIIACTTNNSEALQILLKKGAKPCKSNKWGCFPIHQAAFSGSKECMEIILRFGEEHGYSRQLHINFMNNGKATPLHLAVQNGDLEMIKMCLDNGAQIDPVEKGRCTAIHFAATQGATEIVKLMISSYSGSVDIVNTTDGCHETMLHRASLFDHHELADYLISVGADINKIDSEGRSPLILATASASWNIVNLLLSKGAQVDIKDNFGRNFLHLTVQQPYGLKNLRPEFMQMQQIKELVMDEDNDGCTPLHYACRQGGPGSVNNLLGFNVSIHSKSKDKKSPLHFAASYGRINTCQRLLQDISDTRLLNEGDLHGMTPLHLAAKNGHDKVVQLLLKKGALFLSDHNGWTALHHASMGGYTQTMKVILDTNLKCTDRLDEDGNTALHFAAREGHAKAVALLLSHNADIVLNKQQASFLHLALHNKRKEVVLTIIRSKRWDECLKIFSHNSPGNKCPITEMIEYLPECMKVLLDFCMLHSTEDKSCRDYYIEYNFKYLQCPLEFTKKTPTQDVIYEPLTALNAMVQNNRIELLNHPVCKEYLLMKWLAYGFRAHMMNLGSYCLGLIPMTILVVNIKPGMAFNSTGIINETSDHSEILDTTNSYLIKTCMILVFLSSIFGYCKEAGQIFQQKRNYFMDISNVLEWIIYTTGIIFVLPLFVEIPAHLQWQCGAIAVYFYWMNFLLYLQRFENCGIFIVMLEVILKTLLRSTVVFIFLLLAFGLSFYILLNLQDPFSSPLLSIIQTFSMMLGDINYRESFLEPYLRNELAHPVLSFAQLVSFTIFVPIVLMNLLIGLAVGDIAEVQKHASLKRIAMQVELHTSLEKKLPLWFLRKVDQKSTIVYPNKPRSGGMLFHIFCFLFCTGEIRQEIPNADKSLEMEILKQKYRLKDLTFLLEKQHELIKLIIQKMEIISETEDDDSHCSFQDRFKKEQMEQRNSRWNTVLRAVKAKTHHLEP
Structure (SMILES),pIC50 [1],human LM [% Qh] [2],human Hepatocytes [% Qh] [3]
Cn1c(=O)c(C(N)=O)cn(Cc2nnn(C[C@H](O)c3cc4cc(F)ccc4o3)n2)c1=O [Example 8],7.23,<23 % Qh,6 % Qh
Cn1c(=O)c(C(N)=O)cn(Cc2nnn(C[C@H](O)c3cc4ccc(F)cc4o3)n2)c1=O [Example 12],6.96,<23 % Qh,16 % Qh
Cn1c(=O)c(C(N)=O)cn(Cc2nnn(C[C@H](O)c3ccc(Br)cc3)n2)c1=O [Example 7],7.25,<23 % Qh,<4 % Qh
Cn1c(=O)c(C(N)=O)cn(Cc2nnn(C[C@H](O)c3cc(Cl)c(Cl)s3)n2)c1=O [Example 5],7.59,<23 % Qh,43 % Qh
CC(C)Cn1c(=O)c(C(N)=O)cn(Cc2nnn(C[C@H](O)c3ccc(Cl)cc3)n2)c1=O [Example 17],6.67,42 % Qh,49 % Qh
COc1ccc([C@@H](O)Cn2nnc(Cn3cc(C(N)=O)c(=O)n(C)c3=O)n2)cc1 [Example 16],6.80,<23 % Qh,<4 % Qh
Cn1c(=O)c(C(N)=O)cn(Cc2nnn(C[C@H](O)c3ccc4oc(F)cc4c3)n2)c1=O [Example 4],7.47,<23 % Qh,8 % Qh
Cn1c(=O)c(C(N)=O)cn(Cc2nnn(C[C@H](O)c3cc4ccc(F)cc4s3)n2)c1=O [Example 3],7.74,26 % Qh,27 % Qh
CCn1c(=O)c(C(N)=O)cn(Cc2nnn(C[C@H](O)c3ccc(Cl)cc3)n2)c1=O [Example 19],7.21,<23 % Qh,5 % Qh
Cn1c(=O)c(C(N)=O)cn(Cc2nnn(C[C@H](O)c3cc4cc(Cl)ccc4o3)n2)c1=O [Example 6],7.38,<23 % Qh,15 % Qh
NC(=O)c1cn(Cc2nnn(C[C@H](O)c3ccc(Cl)cc3)n2)c(=O)n(CC2CC2)c1=O [Example 20],7.19,<23 % Qh,15 % Qh
Cn1c(=O)c(C(N)=O)cn(Cc2nnn(C[C@H](O)c3ccc(C#N)s3)n2)c1=O [Example 14],6.81,<23 % Qh,4 % Qh
Cc1ccc([C@@H](O)Cn2nnc(Cn3cc(C(N)=O)c(=O)n(C)c3=O)n2)cc1 [Example 13],6.91,<23 % Qh,<4 % Qh
Cn1c(=O)c(C(N)=O)cn(Cc2nnn(C[C@H](O)c3ccc(Cl)s3)n2)c1=O [Example 10],7.04,<23 % Qh,15 % Qh

# The next lines start with the values.
pIC50 [1],human LM [% Qh] [2],human Hepatocytes [% Qh] [3],Structure (SMILES)
7.04,52 % Qh,45 % Qh,Cn1c(=O)c(C(=O)NCC2CC2)cn(Cc2nnn(C[C@H](O)c3ccc(Cl)cc3)n2)c1=O [Example 32]
7.41,38 % Qh,28 % Qh,Cn1c(=O)c(C(=O)NCCN2CCOCC2)cn(Cc2nnn(C[C@H](O)c3ccc(Cl)cc3)n2)c1=O [Example 24]
7.36,28 % Qh,9 % Qh,Cn1c(=O)c(C(=O)NCCOC(F)(F)F)cn(Cc2nnn(C[C@H](O)c3ccc(Cl)cc3)n2)c1=O [Example 30]
7.17,<23 % Qh,4 % Qh,Cn1c(=O)c(C(=O)NCC(F)(F)F)cn(Cc2nnn(C[C@H](O)c3ccc(Cl)cc3)n2)c1=O [Example 31]
6.85,<23 % Qh,17 % Qh,CNC(=O)c1cn(Cc2nnn(C[C@H](O)c3ccc(Cl)cc3)n2)c(=O)n(C)c1=O [Example 27]
7.48,<23 % Qh,19 % Qh,Cn1c(=O)c(C(=O)NCCn2cccn2)cn(Cc2nnn(C[C@H](O)c3ccc(Cl)cc3)n2)c1=O [Example 35]
7.64,<23 % Qh,25 % Qh,"COCCNC(=O)c1cn(Cc2nnn(C[C@H](O)c3ccc(Cl)cc3)n2)c(=O)n(C)c1=O [Example 22, 1-({2-[(2R)-2-(4-chlorophenyl)-2-hydroxyethyl]-2H-1,2,3,4-tetrazol-5-yl}methyl)-N-(2-methoxyethyl)-3-methyl-2,4-dioxo-1,2,3,4-tetrahydropyrimidine-5-carboxamide]"
6.73,<23 % Qh,<4 % Qh,Cn1c(=O)c(C(=O)NCCS(C)(=O)=O)cn(Cc2nnn(C[C@H](O)c3ccc(Cl)cc3)n2)c1=O [Example 28]
6.64,53 % Qh,27 % Qh,Cn1c(=O)c(C(=O)NCCn2ccnc2)cn(Cc2nnn(C[C@H](O)c3ccc(Cl)cc3)n2)c1=O [Example 29]
7.37,55 % Qh,42 % Qh,CN1CCOCC1CNC(=O)c1cn(Cc2nnn(C[C@H](O)c3ccc(Cl)cc3)n2)c(=O)n(C)c1=O (stereo partly drawn) [Example 25]
7.41,<23 % Qh,15 % Qh,Cn1c(=O)c(C(=O)NCC(F)F)cn(Cc2nnn(C[C@H](O)c3ccc(Cl)cc3)n2)c1=O [Example 23]
